From patent US9326516B2, “Molecules having certain pesticidal utilities, and intermediates, compositions, and processes related thereto” (Dow AgroSciences LLC, priority 2014, dated 2016)

Assays:
Format in all cases: in vivo
[1] = tested on: Beet Armyworm (Spodoptera exigua, LAPHEG); assay: Bioassay on Beet Armyworm (BAW), 128-well diet tray assay; conditions: 168 h, 50 μg/cm^2 on artificial diet, second instar BAW larvae, 25° C., five to seven days, average of eight wells, read-out: BAW % Control (or Mortality) rating
Description: (§1) Certain molecules disclosed in this document were tested against BAW and CEW using procedures described in the following examples. In the reporting of the results, the “BAW & CL Rating Table” was used (See Table Section).
Bioassays on BAW were conducted using a 128-well diet tray assay. one to five second instar BAW larvae were placed in each well (3 mL) of the diet tray that had been previously filled with 1 mL of artificial diet to which 50 μg/cm^2 of the test compound (dissolved in 50 μL of 90:10 acetone-water mixture) had been applied (to each of eight wells) and then allowed to dry. Trays were covered with a clear self-adhesive cover and held at 25° C., 14:10 light-dark for five to seven days. Percent mortality was recorded for the larvae in each well; activity in the eight wells was then averaged. The results are indicated in the table entitled “Table ABC: Biological Results” (See Table Section).

[2] = tested on: Cabbage Looper (Trichoplusia ni, TRIPNI); assay: Bioassay on Cabbage Looper (CL), 128-well diet tray assay; conditions: 168 h, 50 μg/cm^2 on artificial diet, second instar CL larvae, 25° C., five to seven days, average of eight wells, read-out: CL % Control (or Mortality) rating
Description: as §1
Bioassays on CL were conducted using a 128-well diet tray assay, one to five second instar CL larvae were placed in each well (3 mL) of the diet tray that had been previously filled with 1 mL of artificial diet to which 50 μg/cm^2 of the test compound (dissolved in 50 μL of 90:10 acetone-water mixture) had been applied (to each of eight wells) and then allowed to dry. Trays were covered with a clear self-adhesive cover and held at 25° C., 14:10 light-dark for five to seven days. Percent mortality was recorded for the larvae in each well; activity in the eight wells was then averaged. The results are indicated in the table entitled “Table ABC: Biological Results” (See Table Section).

[3] = tested on: Green Peach Aphid (Myzus persicae, MYZUPE); assay: Bioassay on Green Peach Aphid (GPA), foliar spray on cabbage seedlings; conditions: 72 h, 200 ppm spray on infested cabbage seedlings, graded after three days, Abbott corrected % control, read-out: GPA % Control (or Mortality) rating
Description: Certain molecules disclosed in this document were tested against GPA using procedures described in the following example. In the reporting of the results, the “GPA Rating Table” was used (See Table Section).
Cabbage seedlings grown in 3-inch pots, with 2-3 small (3-5 cm) true leaves, were used as test substrate. The seedlings were infested with 20-50 GPA (wingless adult and nymph stages) one day prior to chemical application. Four pots with individual seedlings were used for each treatment. Test compounds (2 mg) were dissolved in 2 mL of acetone/methanol (1:1) solvent, forming stock solutions of 1000 ppm test compound. The stock solutions were diluted 5× with 0.025% Tween 20 in water to obtain the solution at 200 ppm test compound. A hand-held aspirator-type sprayer was used for spraying a solution to both sides of […] leaves until runoff. Reference plants (solvent check) were sprayed with the diluent only containing 20% by volume of acetone/methanol (1:1) solvent. Treated plants were held in a holding room for three days at approximately 25° C. and ambient relative humidity (RH) prior to grading. Evaluation was conducted by counting the number of live aphids per plant under a microscope. Percent Control was measured by using Abbott's correction formula (W. S. Abbott, “A Method of Computing the Effectiveness of an Insecticide” J. Econ. Entomol. 18 (1925), pp. 265-267) as follows. Corrected % Control=100*(X−Y)/X where X=No. of live aphids on solvent check plants and Y=No. of live aphids on treated plants

SMILES | mortality at 50 µg/cm2 [1] [%] | mortality at 50 µg/cm2 [2] [%] | mortality at 200 ppm [3] [%]
FC(F)(F)Oc1ccc(-n2cnc(-c3ccc(NC4=NC(c5ccc(Cl)cc5)CO4)cc3)n2)cc1 (stereo not drawn) [Compound F3, 4-(4-Chlorophenyl)-N-(4-(1-(4-(trifluoromethoxy)phenyl)-1H-1,2,4-triazol-3-yl)phenyl)-4,5-dihydrooxazol-2-amine] | 50 to 100 | 50 to 100 | 0 to 80
Cc1ccc(C2COC(Nc3ccc(-c4ncn(-c5ccc(OC(F)(F)F)cc5)n4)cc3)=N2)cc1 (stereo not drawn) [Compound F4, 4-(p-Tolyl)-N-(4-(1-(4-(trifluoromethoxy)phenyl)-1H-1,2,4-triazol-3-yl)phenyl)-4,5-dihydrooxazol-2-amine] | 0 | 50 to 100 | 0
COc1ccc(C2COC(Nc3ccc(-c4ncn(-c5ccc(OC(F)(F)F)cc5)n4)cc3)=N2)cc1 (stereo not drawn) [Compound F6, 4-(4-Methoxyphenyl)-N-(4-(1-(4-(trifluoromethoxy)phenyl)-1H-1,2,4-triazol-3-yl)phenyl)-4,5-dihydrooxazol-2-amine] | 50 to 100 | 50 to 100 | 0
FC(F)(F)Oc1ccc(-n2cnc(-c3ccc(NC4=NC(c5ccccc5)CO4)cc3)n2)cc1 (stereo not drawn) [Compound F7, 4-Phenyl-N-(4-(1-(4-(trifluoromethoxy)phenyl)-1H-1,2,4-triazol-3-yl)phenyl)-4,5-dihydrooxazol-2-amine] | 50 to 100 | 50 to 100 | 80 to 100
Fc1ccc(C2COC(Nc3ccc(-c4ncn(-c5ccc(OC(F)(F)F)cc5)n4)cc3)=N2)cc1 (stereo not drawn) [Compound F8, 4-(4-Fluorophenyl)-N-(4-(1-(4-(trifluoromethoxy)phenyl)-1H-1,2,4-triazol-3-yl)phenyl)-4,5-dihydrooxazol-2-amine] | 50 to 100 | 50 to 100 | 0 to 80
FC(F)(F)Oc1ccc(-n2cnc(-c3ccc(NC4=NC(c5ccc(Br)cc5)CO4)cc3)n2)cc1 (stereo not drawn) [Compound F9, 4-(4-Bromophenyl)-N-(4-(1-(4-(trifluoromethoxy)phenyl)-1H-1,2,4-triazol-3-yl)phenyl)-4,5-dihydrooxazol-2-amine] | 50 to 100 | 50 to 100 | 80 to 100
FC(F)(F)Oc1ccc(-n2cnc(-c3ccc(NC4=NC(c5cccc(Cl)c5)CO4)cc3)n2)cc1 (stereo not drawn) [Compound F10, 4-(3-Chlorophenyl)-N-(4-(1-(4-(trifluoromethoxy)phenyl)-1H-1,2,4-triazol-3-yl)phenyl)-4,5-dihydrooxazol-2-amine] | 0 | 50 to 100 | 0
COc1ccc(C2COC(Nc3ccc(-c4ncn(-c5ccc(C(F)(F)F)cc5)n4)cc3)=N2)cc1 (stereo not drawn) [Compound F12, 4-(4-Methoxyphenyl)-N-(4-(1-(4-(trifluoromethyl)phenyl)-1H-1,2,4-triazol-3-yl)phenyl)-4,5-dihydrooxazol-2-amine] | 0 | 0 | 0
Cc1ccc(C2COC(Nc3ccc(-c4ncn(-c5ccc(C(F)(F)F)cc5)n4)cc3)=N2)cc1 (stereo not drawn) [Compound F13, 4-(p-Tolyl)-N-(4-(1-(4-(trifluoromethyl)phenyl)-1H-1,2,4-triazol-3-yl)phenyl)-4,5-dihydrooxazol-2-amine] | 0 | 0 | 0
FC(F)(F)c1ccc(-n2cnc(-c3ccc(NC4=NC(c5ccccc5)CO4)cc3)n2)cc1 (stereo not drawn) [Compound F14, 4-Phenyl-N-(4-(1-(4-(trifluoromethyl)phenyl)-1H-1,2,4-triazol-3-yl)phenyl)-4,5-dihydrooxazol-2-amine] | 0 | 0 | 0
Fc1ccc(C2COC(Nc3ccc(-c4ncn(-c5ccc(C(F)(F)F)cc5)n4)cc3)=N2)cc1 (stereo not drawn) [Compound F15, 4-(4-Fluorophenyl)-N-(4-(1-(4-(trifluoromethyl)phenyl)-1H-1,2,4-triazol-3-yl)phenyl)-4,5-dihydrooxazol-2-amine] | 50 to 100 | 50 to 100 | 0
FC(F)(F)c1ccc(-n2cnc(-c3ccc(NC4=NC(c5ccc(Cl)cc5)CO4)cc3)n2)cc1 (stereo not drawn) [Compound F16, 4-(4-Chlorophenyl)-N-(4-(1-(4-(trifluoromethyl)phenyl)-1H-1,2,4-triazol-3-yl)phenyl)-4,5-dihydrooxazol-2-amine] | 50 to 100 | 50 to 100 | 80 to 100
FC(F)(F)Oc1ccc(C2COC(Nc3ccc(-c4ncn(-c5ccc(C(F)(F)F)cc5)n4)cc3)=N2)cc1 (stereo not drawn) [Compound F17, 4-(4-(Trifluoromethoxy)phenyl)-N-(4-(1-(4-(trifluoromethyl)phenyl)-1H-1,2,4-triazol-3-yl)phenyl)-4,5-dihydrooxazol-2-amine] | 50 to 100 | 50 to 100 | 0
FC(F)(F)c1ccc(-n2cnc(-c3ccc(NC4=NC(c5cccc(Cl)c5)CO4)cc3)n2)cc1 (stereo not drawn) [Compound F18, 4-(3-Chlorophenyl)-N-(4-(1-(4-(trifluoromethyl)phenyl)-1H-1,2,4-triazol-3-yl)phenyl)-4,5-dihydrooxazol-2-amine] | 50 to 100 | 50 to 100 | 0
FC(F)(F)c1ccc(-n2cnc(-c3ccc(NC4=NC(c5ccccc5Cl)CO4)cc3)n2)cc1 (stereo not drawn) [Compound F19, 4-(2-Chlorophenyl)-N-(4-(1-(4-(trifluoromethyl)phenyl)-1H-1,2,4-triazol-3-yl)phenyl)-4,5-dihydrooxazol-2-amine] | 0 | 50 to 100 | 0
COc1ccc(C2CSC(Nc3ccc(-c4ncn(-c5ccc(OC(F)(F)F)cc5)n4)cc3)=N2)cc1 (stereo not drawn) [Compound F21, 4-(4-Methoxyphenyl)-N-(4-(1-(4-(trifluoromethoxy)phenyl)-1H-1,2,4-triazol-3-yl)phenyl)-4,5-dihydrothiazol-2-amine] | 50 to 100 | 0 | 0
Cc1ccc(C2CSC(Nc3ccc(-c4ncn(-c5ccc(OC(F)(F)F)cc5)n4)cc3)=N2)cc1 (stereo not drawn) [Compound F22, 4-(p-Tolyl)-N-(4-(1-(4-(trifluoromethoxy)phenyl)-1H-1,2,4-triazol-3-yl)phenyl)-4,5-dihydrothiazol-2-amine] | 0 | 0 | 0
FC(F)(F)Oc1ccc(-n2cnc(-c3ccc(NC4=NC(c5ccccc5)CS4)cc3)n2)cc1 (stereo not drawn) [Compound F23, 4-Phenyl-N-(4-(1-(4-(trifluoromethoxy)phenyl)-1H-1,2,4-triazol-3-yl)phenyl)-4,5-dihydrothiazol-2-amine] | 0 | 0 | 0
Fc1ccc(C2CSC(Nc3ccc(-c4ncn(-c5ccc(OC(F)(F)F)cc5)n4)cc3)=N2)cc1 (stereo not drawn) [Compound F24, 4-(4-Fluorophenyl)-N-(4-(1-(4-(trifluoromethoxy)phenyl)-1H-1,2,4-triazol-3-yl)phenyl)-4,5-dihydrothiazol-2-amine] | 0 to 50 | 0 to 50 | 0
